Tested on: wound tissue
Experiment: H&E staining of mouse wound sections
Format: in vivo
Protocol: Sodium pentobarbital (2 %) was utilised for the anaesthetisation of mice by intraperitoneal injection (0.1 mL/20 g of mouse body weight). Subsequent to the induction of anaesthesia, the dorsal hair was removed using depilatory creams and electric scissors. Thereafter, circular full skin wounds of the same diameter were marked and created on the back of each mouse using circular stamps and red stencils. Mouse wounds were then covered and infiltrated daily with 20 μL of different concentrations of SC17-2 or 20 ng/mL of VEGF, and an equal volume of saline was used in the control group. Mice were anaesthetised every two days using isoflurane nebulisation followed by anaesthesia (concentration 2 %), after which they were placed under an optical camera to photograph the effect of wound area. After 13 days of treatment, mice were anaesthetised using isoflurane nebulisation followed by injection of an overdose of sodium pentobarbital to euthanise the mice (200 mg/kg). The wounds and their surrounding tissues were then excised for histopathological evaluation (Masson and H&E staining) and analysed by Enface immunofluorescence staining.

[1] = increase in concentration of SC17-2

In the case of “SFMPLSIPIMCKMLSKC [SC17-2, peptide of the pleskein family from the skin transcriptome of the frog Nanorana parkeri, made by solid-phase synthesis]”, the “inflammatory cell infiltration in wound tissue” value (day 13, SC17-2 no less than 10 μg/mL) is reported as “significantly reduced the degree of inflammatory cell infiltration in the wound tissue”, the epithelial tissue thickness [1] is reported as “notable thickening of epithelial tissue” and the granulation tissue formation [1] is reported as “enhanced granulation tissue formation”.

Source: paper PMC12957798, “Adaptation of plateau frog peptide: From antimicrobial to angiogenic and proliferative functions” (Journal of Advanced Research, 2025)
